Data as given in ChEMBL document CHEMBL3784918, “Novel 2,4-diaminopyrimidines bearing tetrahydronaphthalenyl moiety against anaplastic lymphoma kinase (ALK): Synthesis, in vitro, ex vivo, and in vivo efficacy studies” (Bioorg Med Chem Lett, 2016).
pIC50: −log10 of the molar value. Active and inactive are the calls of the source. No cut-off for these calls is given here.

Legend:
[1] = biological target: ALK tyrosine kinase receptor (Homo sapiens, UniProt Q9UM73, L1196M); assay: Inhibition of ALK L1196M mutant (unknown origin) after 30 mins by HTRF assay
ALK tyrosine kinase receptor (Homo sapiens, UniProt Q9UM73, L1196M), sequence (Q9UM73 19-1620 L1196M limits assumed): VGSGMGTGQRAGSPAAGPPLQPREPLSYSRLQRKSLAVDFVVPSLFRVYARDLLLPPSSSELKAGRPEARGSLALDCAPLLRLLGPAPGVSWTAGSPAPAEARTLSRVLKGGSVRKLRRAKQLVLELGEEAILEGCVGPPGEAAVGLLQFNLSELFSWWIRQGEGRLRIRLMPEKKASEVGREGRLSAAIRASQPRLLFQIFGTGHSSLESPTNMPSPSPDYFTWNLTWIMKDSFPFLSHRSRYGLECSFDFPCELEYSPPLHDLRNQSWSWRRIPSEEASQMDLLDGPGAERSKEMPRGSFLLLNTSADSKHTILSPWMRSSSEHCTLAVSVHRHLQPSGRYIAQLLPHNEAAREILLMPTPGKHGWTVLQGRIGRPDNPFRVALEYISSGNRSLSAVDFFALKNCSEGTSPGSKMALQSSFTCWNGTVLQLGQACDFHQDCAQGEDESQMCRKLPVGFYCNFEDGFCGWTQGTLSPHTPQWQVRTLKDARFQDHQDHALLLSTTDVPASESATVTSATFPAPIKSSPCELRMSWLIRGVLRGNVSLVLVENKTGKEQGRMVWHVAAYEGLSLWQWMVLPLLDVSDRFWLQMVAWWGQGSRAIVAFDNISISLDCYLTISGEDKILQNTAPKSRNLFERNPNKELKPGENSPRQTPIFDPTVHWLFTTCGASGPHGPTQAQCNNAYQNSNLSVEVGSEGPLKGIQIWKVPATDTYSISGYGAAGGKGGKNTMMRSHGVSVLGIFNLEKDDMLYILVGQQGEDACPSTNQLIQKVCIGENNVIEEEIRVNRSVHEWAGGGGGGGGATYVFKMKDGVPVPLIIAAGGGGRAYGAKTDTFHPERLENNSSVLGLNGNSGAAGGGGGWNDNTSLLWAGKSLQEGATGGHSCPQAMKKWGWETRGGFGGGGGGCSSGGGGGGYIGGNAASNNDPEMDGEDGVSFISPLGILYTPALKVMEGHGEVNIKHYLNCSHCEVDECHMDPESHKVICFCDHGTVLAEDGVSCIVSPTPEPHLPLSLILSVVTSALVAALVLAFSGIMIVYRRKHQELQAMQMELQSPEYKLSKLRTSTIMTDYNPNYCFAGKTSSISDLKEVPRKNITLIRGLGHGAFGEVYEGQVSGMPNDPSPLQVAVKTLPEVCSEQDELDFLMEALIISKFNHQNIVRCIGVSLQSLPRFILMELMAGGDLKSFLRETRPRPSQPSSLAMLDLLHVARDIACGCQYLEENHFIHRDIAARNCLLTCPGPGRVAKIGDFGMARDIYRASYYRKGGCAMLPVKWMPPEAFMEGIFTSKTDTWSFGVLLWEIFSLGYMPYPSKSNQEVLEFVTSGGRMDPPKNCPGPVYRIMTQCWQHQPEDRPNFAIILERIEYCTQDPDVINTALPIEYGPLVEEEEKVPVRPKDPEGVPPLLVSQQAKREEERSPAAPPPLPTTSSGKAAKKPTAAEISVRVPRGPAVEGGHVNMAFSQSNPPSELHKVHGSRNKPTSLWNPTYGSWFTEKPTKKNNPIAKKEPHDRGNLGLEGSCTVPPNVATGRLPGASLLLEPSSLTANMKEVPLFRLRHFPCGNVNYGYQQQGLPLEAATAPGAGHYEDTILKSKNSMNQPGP

BaF3 = assay: Inhibition of ALK L1196M mutant in mouse BA/F3 cells assessed as inhibition of cell proliferation after 72 hrs by WST1 assay; format: cell-based
[2] = biological target: ALK tyrosine kinase receptor (Homo sapiens, UniProt Q9UM73); assay: Inhibition of wild type ALK (unknown origin) after 30 mins by HTRF assay
ALK tyrosine kinase receptor (Homo sapiens, UniProt Q9UM73), sequence (Q9UM73 whole entry): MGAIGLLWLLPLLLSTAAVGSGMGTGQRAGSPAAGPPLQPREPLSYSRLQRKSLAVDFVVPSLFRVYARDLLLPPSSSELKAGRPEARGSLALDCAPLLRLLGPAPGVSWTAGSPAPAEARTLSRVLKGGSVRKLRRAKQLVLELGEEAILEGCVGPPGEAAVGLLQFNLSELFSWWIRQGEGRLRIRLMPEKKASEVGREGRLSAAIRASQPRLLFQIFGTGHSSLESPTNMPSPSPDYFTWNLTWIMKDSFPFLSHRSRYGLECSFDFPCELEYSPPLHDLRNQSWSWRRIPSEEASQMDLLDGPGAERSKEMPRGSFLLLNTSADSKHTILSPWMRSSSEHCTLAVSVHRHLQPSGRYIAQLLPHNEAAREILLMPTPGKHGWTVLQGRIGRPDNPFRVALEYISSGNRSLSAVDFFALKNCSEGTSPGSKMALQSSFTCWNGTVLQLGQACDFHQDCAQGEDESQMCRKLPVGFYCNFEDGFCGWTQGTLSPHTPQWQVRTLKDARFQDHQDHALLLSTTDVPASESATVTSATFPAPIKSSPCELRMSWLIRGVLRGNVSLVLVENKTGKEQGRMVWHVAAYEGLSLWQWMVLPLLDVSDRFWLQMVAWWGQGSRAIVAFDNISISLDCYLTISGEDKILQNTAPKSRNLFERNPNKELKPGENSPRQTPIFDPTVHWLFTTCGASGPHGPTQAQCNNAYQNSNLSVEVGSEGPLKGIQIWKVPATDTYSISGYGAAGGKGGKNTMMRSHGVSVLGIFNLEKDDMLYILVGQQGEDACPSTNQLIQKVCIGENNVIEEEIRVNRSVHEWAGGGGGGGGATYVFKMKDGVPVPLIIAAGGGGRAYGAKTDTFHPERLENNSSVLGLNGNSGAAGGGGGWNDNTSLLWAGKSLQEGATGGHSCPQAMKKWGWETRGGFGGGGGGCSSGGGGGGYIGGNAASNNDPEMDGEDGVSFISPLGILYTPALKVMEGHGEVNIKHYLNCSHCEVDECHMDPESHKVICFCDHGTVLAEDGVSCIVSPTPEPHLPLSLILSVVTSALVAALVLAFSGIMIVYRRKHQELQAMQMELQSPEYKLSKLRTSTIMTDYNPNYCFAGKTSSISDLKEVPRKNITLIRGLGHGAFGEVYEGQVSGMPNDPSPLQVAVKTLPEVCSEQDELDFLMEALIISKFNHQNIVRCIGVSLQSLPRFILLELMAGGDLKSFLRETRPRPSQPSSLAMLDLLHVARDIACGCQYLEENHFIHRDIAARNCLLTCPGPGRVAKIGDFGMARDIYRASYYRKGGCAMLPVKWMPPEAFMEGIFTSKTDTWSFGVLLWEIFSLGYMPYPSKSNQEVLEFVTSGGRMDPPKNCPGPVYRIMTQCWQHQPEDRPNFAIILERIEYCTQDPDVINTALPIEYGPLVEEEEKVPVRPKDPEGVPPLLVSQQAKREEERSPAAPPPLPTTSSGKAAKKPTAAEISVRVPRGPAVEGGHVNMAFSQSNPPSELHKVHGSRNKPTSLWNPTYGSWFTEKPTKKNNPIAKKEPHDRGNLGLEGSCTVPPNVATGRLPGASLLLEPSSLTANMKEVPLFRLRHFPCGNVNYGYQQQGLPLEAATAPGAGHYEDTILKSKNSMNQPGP

EML4-ALK (Homo sapiens) = EML4-ALK (Homo sapiens) (UniProt Q9UM73+Q9HC35); assay: Inhibition of EML4-ALK in human NCI-H3122 cells assessed as inhibition of cell proliferation after 72 hrs by SRB assay; format: cell-based
EML4-ALK (Homo sapiens), sequence (Q9HC35 whole entry partner): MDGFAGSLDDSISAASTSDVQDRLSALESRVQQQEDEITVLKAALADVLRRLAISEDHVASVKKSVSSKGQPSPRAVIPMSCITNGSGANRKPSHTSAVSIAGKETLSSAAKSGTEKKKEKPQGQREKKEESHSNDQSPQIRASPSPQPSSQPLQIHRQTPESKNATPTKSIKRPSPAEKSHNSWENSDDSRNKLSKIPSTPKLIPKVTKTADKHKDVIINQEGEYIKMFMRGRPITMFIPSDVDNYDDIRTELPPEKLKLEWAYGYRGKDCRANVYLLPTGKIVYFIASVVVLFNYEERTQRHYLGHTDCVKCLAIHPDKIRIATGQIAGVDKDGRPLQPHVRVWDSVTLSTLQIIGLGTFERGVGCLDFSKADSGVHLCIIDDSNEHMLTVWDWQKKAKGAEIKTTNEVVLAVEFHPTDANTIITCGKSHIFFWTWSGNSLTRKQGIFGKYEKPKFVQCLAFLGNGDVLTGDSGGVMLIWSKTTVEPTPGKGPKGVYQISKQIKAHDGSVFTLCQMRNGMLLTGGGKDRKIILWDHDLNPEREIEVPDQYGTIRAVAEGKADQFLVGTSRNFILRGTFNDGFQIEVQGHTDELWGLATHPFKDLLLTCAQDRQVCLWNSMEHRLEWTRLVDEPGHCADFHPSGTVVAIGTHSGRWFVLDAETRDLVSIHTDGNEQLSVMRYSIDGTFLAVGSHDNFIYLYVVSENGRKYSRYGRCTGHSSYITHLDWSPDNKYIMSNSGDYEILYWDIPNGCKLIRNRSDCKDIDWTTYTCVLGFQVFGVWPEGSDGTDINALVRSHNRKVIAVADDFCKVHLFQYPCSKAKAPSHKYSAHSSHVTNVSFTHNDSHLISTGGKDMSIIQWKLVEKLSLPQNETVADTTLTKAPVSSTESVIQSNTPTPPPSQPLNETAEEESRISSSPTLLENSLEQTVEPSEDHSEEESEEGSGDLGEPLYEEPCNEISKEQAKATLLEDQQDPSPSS
EML4-ALK (Homo sapiens), sequence (Q9UM73 19-1620 limits assumed): as the sequence (Q9UM73 19-1620 L1196M limits assumed) above, with M1178L counted along it

CYP2C9 = CYP2C9 (Homo sapiens, UniProt P11712); assay: Inhibition of CYP2C9 (unknown origin) at 10 uM; format: ADME
CYP2D6 = CYP2D6 (Homo sapiens, UniProt P10635); assay: Inhibition of CYP2D6 (unknown origin) at 10 uM; format: ADME
[3] = Metabolic stability of the compound in mouse liver microsomes assessed as compound remaining at 1 uM after 30 mins by LC/MS/MS analysis in the presence of NADPH; format: ADME; settings: read-out: Stability
[4] = Tmax in cannulated Sprague Dawley rat at 10 mg/kg administered through oral gavage by LC/MS/MS analysis; format: ADME, organism-based; settings: in vivo
[5] = Cmax in cannulated Sprague Dawley rat at 10 mg/kg administered through oral gavage by LC/MS/MS analysis; format: ADME, organism-based; design: dose 10 mg/kg, route oral; settings: in vivo
Mus musculus = assay: Toxicity in SCID mouse xenografted with human H3122 cells assessed as change in body weight at 50 mg/kg, po administered qd for 14 days measured during compound dosing; format: organism-based; settings: in vivo, 336 h
[6] = Half life in cannulated Sprague Dawley rat at 10 mg/kg administered through oral gavage by LC/MS/MS analysis; format: ADME, organism-based; settings: in vivo
CYP3A4 = CYP3A4 (Homo sapiens, UniProt P08684); assay: Inhibition of CYP3A4 (unknown origin) at 10 uM; format: ADME
CYP3A4, sequence (P08684 whole entry): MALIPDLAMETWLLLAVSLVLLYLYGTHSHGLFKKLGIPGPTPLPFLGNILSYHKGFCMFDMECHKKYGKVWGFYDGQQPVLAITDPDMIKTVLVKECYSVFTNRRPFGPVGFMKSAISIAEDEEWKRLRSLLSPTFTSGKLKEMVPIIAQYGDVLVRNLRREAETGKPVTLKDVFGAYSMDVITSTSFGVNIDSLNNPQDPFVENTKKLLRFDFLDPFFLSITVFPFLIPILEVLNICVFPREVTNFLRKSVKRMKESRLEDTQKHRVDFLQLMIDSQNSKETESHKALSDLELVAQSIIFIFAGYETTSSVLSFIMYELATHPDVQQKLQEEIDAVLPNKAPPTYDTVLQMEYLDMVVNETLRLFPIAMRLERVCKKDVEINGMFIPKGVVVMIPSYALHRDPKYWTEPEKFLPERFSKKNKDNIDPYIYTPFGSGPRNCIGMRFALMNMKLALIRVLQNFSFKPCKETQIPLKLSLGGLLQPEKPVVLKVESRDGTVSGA

CYP2C19 = CYP2C19 (Homo sapiens, UniProt P33261); assay: Inhibition of CYP2C19 (unknown origin) at 10 uM; format: ADME
NCI-H3122 = assay: Antitumor activity against human NCI-H3122 cells xenografted in SCID mouse assessed as tumor growth inhibition at 50 mg/kg, po administered qd for 14 days; format: functional, organism-based
CYP1A2 = CYP1A2 (Homo sapiens, UniProt P05177); assay: Inhibition of CYP1A2 (unknown origin) at 10 uM; format: ADME
[7] = AUCinfinity in cannulated Sprague Dawley rat at 10 mg/kg administered through oral gavage by LC/MS/MS analysis; format: ADME, organism-based; design: dose 10 mg/kg, time infinity, route oral; settings: in vivo
[8] = Metabolic stability of the compound in human liver microsomes assessed as compound remaining at 1 uM after 30 mins by LC/MS/MS analysis in the presence of NADPH; format: ADME; settings: read-out: Stability
[9] = AUCt in cannulated Sprague Dawley rat at 10 mg/kg administered through oral gavage by LC/MS/MS analysis; format: ADME, organism-based; settings: in vivo

SMILES	pIC50 [1]	CC50 (BaF3)	pIC50 [2]	CC50 (EML4-ALK (Homo sapiens))	further results
COc1cc2c(cc1Nc1ncc(Cl)c(Nc3ccccc3S(=O)(=O)C(C)C)n1)C(C)(C)/C(=N/NC(=N)N)CC2	7.00	2090 nM	7.80	2400 nM	
COc1cc2c(cc1Nc1ncc(Cl)c(Nc3ccccc3S(=O)(=O)C(C)C)n1)CC/C(=N\NC(N)=O)C2(C)C	7.38	334 nM	7.54	117 nM	
COc1cc2c(cc1Nc1ncc(Cl)c(Nc3ccccc3S(=O)(=O)C(C)C)n1)C(C)(C)/C(=N/N1CCN(C)CC1)CC2	6.70	2600 nM	7.36	2830 nM	
COc1cc2c(cc1Nc1ncc(Cl)c(Nc3ccccc3S(=O)(=O)C(C)C)n1)CC/C(=N\NC(=N)N)C2(C)C	7.43	1580 nM	7.74	235 nM	
COc1cc2c(cc1Nc1ncc(Cl)c(Nc3ccccc3S(=O)(=O)C(C)C)n1)CCC(=O)C2(C)C		432 nM			
COc1cc2c(cc1Nc1ncc(Cl)c(Nc3ccccc3S(=O)(=O)C(C)C)n1)C(C)(C)/C(=N/O)CC2	6.22	1360 nM	6.37	1220 nM	
COc1cc2c(cc1Nc1ncc(Cl)c(Nc3ccccc3S(=O)(=O)C(C)C)n1)CC/C(=N\NC(C)=O)C2(C)C	7.40	314 nM	7.68	128 nM	
COc1cc2c(cc1Nc1ncc(Cl)c(Nc3ccccc3S(=O)(=O)C(C)C)n1)C(C)(C)/C(=N/N1CCOCC1)CC2	6.65	1640 nM	6.91	732 nM	
COc1cc2c(cc1Nc1ncc(Cl)c(Nc3ccccc3S(=O)(=O)C(C)C)n1)C(C)(C)/C(=N/NC(C)=O)CC2	6.70	640 nM	7.28	146 nM	
COc1cc2c(cc1Nc1ncc(Cl)c(Nc3ccccc3S(=O)(=O)C(C)C)n1)CC/C(=N\N1CCOCC1)C2(C)C	7.40	416 nM	7.40	30 nM	
COc1cc2c(cc1Nc1ncc(Cl)c(Nc3ccccc3S(=O)(=O)C(C)C)n1)CC/C(=N\N1CCN(C)CC1)C2(C)C	8.08	66 nM	9.30	14 nM	inhibition at 10 µM (CYP2C9): 17.1%; inhibition at 10 µM (CYP2D6): 11.4%; remaining at 0.5 h, 1 µM [3]: 14%; Tmax [4]: 0.833 h; Cmax [5]: 1270 ng/mL; Activity (Mus musculus): Non-toxic; half-life [6]: 3.04 h; inhibition at 10 µM (CYP3A4): 47.5%; inhibition at 10 µM (CYP2C19): 43.4%; TGI (NCI-H3122): Active; inhibition at 10 µM (CYP1A2): 7.2%; AUC(0-inf) [7]: 3760 ng·h/mL; remaining at 0.5 h, 1 µM [8]: 20%; AUC(0-t) [9]: 3750 ng·h/mL
COc1cc2c(cc1Nc1ncc(Cl)c(Nc3ccccc3S(=O)(=O)C(C)C)n1)C(C)(C)C(O)CC2 (stereo unspecified)	6.96	1600 nM	7.47	726 nM	
COc1cc2c(cc1Nc1ncc(Cl)c(Nc3ccccc3S(=O)(=O)C(C)C)n1)C(C)(C)/C(=N/NC(N)=O)CC2	7.01	400 nM	7.80	146 nM	
Cc1cc(Nc2ncc(Cl)c(Nc3ccccc3S(=O)(=O)C(C)C)n2)c(OC(C)C)cc1C1CCNCC1		75 nM		38 nM	TGI (NCI-H3122): Active
COc1cc2c(cc1Nc1ncc(Cl)c(Nc3ccccc3S(=O)(=O)C(C)C)n1)CCC(NC(=O)CO)C2(C)C (stereo unspecified)	8.00	86 nM	8.21	44 nM	
COc1cc2c(cc1Nc1ncc(Cl)c(Nc3ccccc3S(=O)(=O)C(C)C)n1)CC/C(=N\O)C2(C)C		1530 nM	6.67	276 nM	
COc1cc2c(cc1Nc1ncc(Cl)c(Nc3ccccc3S(=O)(=O)C(C)C)n1)C(C)(C)C(=O)CC2		2000 nM			
COc1cc2c(cc1Nc1ncc(Cl)c(Nc3ccccc3S(=O)(=O)C(C)C)n1)CCC(O)C2(C)C (stereo unspecified)	7.25	299 nM	7.68	99 nM	
COc1cc2c(cc1Nc1ncc(Cl)c(Nc3ccccc3S(=O)(=O)C(C)C)n1)CCC(NC(=O)CN(C)C)C2(C)C (stereo unspecified)	8.44	71 nM	8.38	39 nM	
COc1cc2c(cc1Nc1ncc(Cl)c(Nc3ccccc3S(=O)(=O)C(C)C)n1)C(C)(C)C(N)CC2 (stereo unspecified)	7.03	1750 nM	7.57	2090 nM	
